Test results as given in patent US7253295B2, “Chloride channel opener” (Sucampo AG, priority 2001, dated 2007).

Key:
[1] = system: non-transfected HEK cells; experiment: Whole cell patch clamp, non-transfected HEK cells (Test Example 1); format: cell-based, human; conditions: for Effect on Cl currents in non-transfected cells (in words): 1 μM; for Cl channel activity: 1 μM in 1% DMSO, non-transfected HEK cells
From the text: Whole cell patch clamp method was used to assess the effect of compound 1 (13,14-dihydro-15-keto-16,16-difluoro-PGE1) and compound 2 (13,14-dihydro-15-keto-16,16-difluoro-18 (S)-methyl-PGE1) on recombinant hClC-2 chloride channel. In this example, effects of the respective compounds on Human Epithelial Kidney (HEK) cells transfected with human ClC-2 (hClC-2) were examined, and the results were compared with those on non-transfected HEK cells.
ClC-2 transfected human epithelial kidney (HEK) cells were prepared and used. HEK-293 cells obtained from American Type Culture Collection (ATCC; Manassas, Va.) were transfected with His- and T7-tagged human ClC-2 cDNA in the mammalian expression vector pcDNA3.1 (GIBCO/Invitrogen) using Lipofectamine (GIBCO/Invitrogen) for 5 h at 37° C. in serum-free medium. Cells were then resuspended in the serum-containing medium and cultured in the presence of 300 μg/ml G-418 (GIBCO/Invitrogen). The surviving cells were then expanded, tested to confirm expression of Cl- current and ClC-2 mRNA, and the cells expressing ClC-2 mRNA were frozen to store. Upon studies, the stored cells were thawed and maintained at 37° C. in 5%/95% CO2/O2 in MEM (GIBCO/Invitrogen) supplemented with 5% inactivated horse serum, 0.1 mM nonessential amino acids, 2 mM L-glutamine, 1 mM sodium pyruvate, 100 units/ml penicillin, and 100 μg/ml streptomycin sulfate.
In the whole cell patch clamp measurements, currents were elicited by voltage clamp pulses (1500 ms duration) between +40 mV and −140 mV, in 20 mV increments, from the beginning holding potential of −30 mV. Currents were measured 50-100 ms after start of the pulse. The external solution was normal Tyrode solution containing 135 mM NaCl, 1.8 mM CaCl2, 1 mM MgCl2, 5.4 mM KCl, 10 mM glucose, and 10 mM HEPES (pH 7.35). The pipette solution was 130 mM CsCl, 1 mM MgCl2, 5 mM EGTA, and 10 mM HEPES (pH 7.35); also present in the pipette was 1 mM ATP—Mg^2+ (pH 7.4).
Pipettes were prepared from borosilicate glass and pulled by a two stage Narashige puller to give 1-1.5 MΩ resistance. Data were acquired with Axopatch CV-4 headstage with Digidata 1200 digitizer and Axopatch 1D amplifier. Data were analyzed using pClamp 6.04 (Axon Instruments, Foster City, Calif.), Lotus 123 (IBM) and Origin (Microcal) software.
Compound 1 and compound 2 were used at a final concentration of 1 μM in 1% DMSO.

[2] = system: AS-HBE cells; experiment: Short-circuit current in AS-HBE cells (Test Example 3); format: cell-based, human; conditions: 250 nM
Procedure: AS-HBE is a human bronchial epithelial (HBE) cell line expressing the first 131 nucleotides of CFTR in the antisense direction (antisense CFTR 16HBE14o- cells, HBE-AS; also called AS-HBE). As a result, AS-HBE cells lack CFTR transcripts and lack functional CFTR. However, AS-HBE cells do express functional ClC-2 in a manner identical to the parental cell line, 16HBE14o- cells, from which they were derived. AS-HBE cells were maintained at 37° C. in 5%/95% CO2/O2 in Minimal Essential Medium (MEM; GIBCO/Invitrogen, Carlsbad, Calif.) supplemented with Earl's salt, L-glutamine (GIBCO/Invitrogen), 10% heat-inactivated fetal bovine serum, 100 units/ml penicillin, 100 μg/ml streptomycin sulfate and 400 μg/ml G-418 (GIBCO/Invitrogen). The cells were grown in air-liquid interface on Biocoat inserts (Fisher Scientific, Chicago, Ill.), coated with human plasma fibronectine (GIBCO/Invitrogen) and vitrogen (Cohesion Technologies, Palo Alto, Calif.).
According to the same manner as described in Example 2, Short-circuit current measurements in the AS-HBE cells were carried out. Changes in short-circuit current (ΔIsc) were normalized to the filter area (0.3 cm^2) and reported as ΔIsc/cm^2.
Test compounds were used at a final concentration of 250 nM.

[3] = system: Chloride Ion Transport into Bile; experiment: Chloride ion transport into bile in rats (Test Example 7); format: in vivo, male Wistar rats
Procedure: Compound 2 (13,14-dihydro-15-keto-16,16- difluoro-18(S)-methyl-prostaglandin E1) of 100 μg/kg was orally administered to male Wistar rats (six weeks old, weight:180-210 g) three times a day for seven days. The control group (n=7) received the same volume of vehicle (distilled water containing 0.01% polysorbate 80 and 0.5% ethanol). In the following morning of the final administration day (about 17 hours after the final administration), a polyethylene catheter (PE10, Becton Dickinson and Company) was inserted in the rats' choledoch under ether anesthesia. The rats were placed into Borrmann's cages and were left for 1 hour to awake from anesthesia. Bile discharged in one hour, from one to two hours after the insertion of the catheter, was collected and the concentration of chloride ion in the bile was measured with a chloride counter (CL-7, Hiranuma Sangyo Co., Ltd.). Student's t-test was used in the comparison of the control group and the group receiving Compound 2. P values less than 0.05 were considered to be statistically significant.

[4] = system: T84 cells; experiment: Short-circuit current in T84 cells (Test Example 5); format: cell-based, human; conditions: 50 nM
Procedure: T84 cells, a human intestinal cell line, derived form confluent monolayers with tight junctions were used. Said cell line has been widely used in studies of Cl^− transport using short-circuit current (Isc). These cells contain both CFTR and ClC-2.
T84 human intestinal epithelial cells were grown to confluence at pH 7.4 in 162-cm^2 flasks (Corning Costar, Mass.) with a 1:1 mixture of Dulbecco's modified Eagle's medium and Ham's F-12 nutrient mixture supplemented with 6% fetal bovine serum (FBS), 15 mM HEPES, 14.3 mM NaHCO^3, and antibiotics/antimycotic. Flasks were passaged weekly and fed every 3 days. Cell monolayers for experiments were grown to confluence on collagen-coated permeable support (Biocoat). Monolayers were fed every 3 days and used after stable transepithelia resistance was achieved, c.a. 7-14 days post-plating.
According to the same manner as described in Example 2, Short-circuit current measurements in T84 cells were carried out. Changes in short-circuit current (ΔIsc) were normalized to filter area (0.3 cm^2) and reported as ΔIsc/cm^2.
Compound 1 was used at a final concentration of 50 nM.

## CC[C@H](C)CC(F)(F)C(=O)CC[C@H]1[C@H](O)CC(=O)[C@@H]1CCCCCCC(=O)O [Compound 2, 13,14-dihydro-15-keto-16,16-difluoro-18(S)-Methyl-PGE1]
[1]
  Effect on Cl currents in non-transfected cells (in words): did not increase
  Cl channel activity: 0.036 ± 0.010 nS/pF
[2]
  Changes in short-circuit currents (Δlsc): 9.0 μA/cm^2
[3]; 100 μg/kg P.O. t.i.d. 7 days, compared with control group
  Effect on concentration of chloride ions in the bile (in words): increased significantly
[3]; 100 μg/kg P.O., t.i.d. for 7 days, about 17 hours after final administration
  Chloride Ion Concentration in Bile, Mean ± S.E.: 98.4 ± 1.8 mEq/L

## CCCCC(F)(F)[C@@]1(O)CC[C@H]2[C@@H](CC(=O)[C@@H]2CCCCCCC(=O)O)O1 [Compound 1, (−)-7-[(2R,4aR,5R,7aR)-2-(1,1-difluoropentyl)-2-hydroxy-6-oxoperhydrocyclopenta[b]pyran-5-yl]heptanoic acid]
[4]
  Effect on Cl− transport in T84 cells (in words): activated Cl^− transport
[4]; T84 cells
  Changes in short-circuit currents (Δlsc): 56.5 μA/cm^2
[1]
  Effect on Cl currents in non-transfected cells (in words): did not increase
  Cl channel activity: 0.035 ± 0.014 nS/pF
[2]
  Changes in short-circuit currents (Δlsc): 4.3 μA/cm^2
